# Measurements as given in ChEMBL document CHEMBL1201862, “PubChem BioAssay data set” (2004).
#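 Dose response: 5 concentrations. Exposure: 48 h. Format: 96-well plates. Endpoint: linear interpolation; highest concentration if not reached. At the GI50, growth is halved.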 The source made the active and inactive calls. Cut-off read from the data, not from the text of the source: active = GI50 up to about 1.1 µM and inactive = higher.
# Legend:
# Assay in all cases: NCI anticancer screen, dose series, 48 h
# A549 = tested on: A549
# PC-3 = tested on: PC-3
# K562 = tested on: K562
# SF-268 = tested on: SF-268
# 786-0 = tested on: 786-0
# COLO 205 = tested on: COLO 205
# SF-295 = tested on: SF-295
# T47D = tested on: T47D
# NCI-H226 = tested on: NCI-H226
# SK-MEL-28 = tested on: SK-MEL-28
# HL-60 = tested on: HL-60
# MDA-N = tested on: MDA-N
# SW-620 = tested on: SW-620
# NCI-H23 = tested on: NCI-H23
# HOP-62 = tested on: HOP-62
# TK-10 = tested on: TK-10
# RPMI-8226 = tested on: RPMI-8226
# CAKI-1 = tested on: CAKI-1
# IGROV-1 = tested on: IGROV-1
# NCI-H522 = tested on: NCI-H522
SMILES,GI50 (A549),GI50 (PC-3),GI50 (K562),GI50 (SF-268),GI50 (786-0),GI50 (COLO 205),GI50 (SF-295),GI50 (T47D),GI50 (NCI-H226),GI50 (SK-MEL-28),GI50 (HL-60),GI50 (MDA-N),GI50 (SW-620),GI50 (NCI-H23),GI50 (HOP-62),GI50 (TK-10),GI50 (RPMI-8226),GI50 (CAKI-1),GI50 (IGROV-1),GI50 (NCI-H522)
CN(c1ccc(Cl)cc1)S(=O)(=O)c1ccccc1,72.4 µM (inactive),21.6 µM (inactive),36.8 µM (inactive),49 µM (inactive),> 100 µM (inactive),47.2 µM (inactive),65.3 µM (inactive),34.2 µM (inactive),30.4 µM (inactive),54.8 µM (inactive),15 µM (inactive),64.9 µM (inactive),85.5 µM (inactive),30.8 µM (inactive),71.9 µM (inactive),65.6 µM (inactive),42.3 µM (inactive),51.3 µM (inactive),> 100 µM (inactive),76.7 µM (inactive)
CC1(C#N)CC(C)(C)C(/C=C2/CC(C)(C)C(/C=C3/OC(=N)CC3(C)C)=N2)=N1 (stereo not given),29.5 µM (inactive),30.6 µM (inactive),22.5 µM (inactive),24.3 µM (inactive),24.9 µM (inactive),16.9 µM (inactive),23.7 µM (inactive),22.7 µM (inactive),40.6 µM (inactive),51.9 µM (inactive),21.9 µM (inactive),31.4 µM (inactive),34.4 µM (inactive),22.8 µM (inactive),23.8 µM (inactive),31 µM (inactive),20 µM (inactive),40 µM (inactive),17.6 µM (inactive),14.2 µM (inactive)
CCN1CN(c2ccccc2)C2(CCN(CC(CC3OCCO3)c3ccc(F)cc3)CC2)C1=O (stereo not given),5.24 µM (inactive),22.6 µM (inactive),32 µM (inactive),5.19 µM (inactive),8.36 µM (inactive),0.703 µM (active),5.69 µM (inactive),5.13 µM (inactive),13.5 µM (inactive),19.9 µM (inactive),17.7 µM (inactive),8.49 µM (inactive),6.35 µM (inactive),12.5 µM (inactive),4.23 µM (inactive),7.53 µM (inactive),10.4 µM (inactive),3.18 µM (inactive),6.75 µM (inactive),12.6 µM (inactive)
CCOC(=O)C1=NN(c2ccc([N+](=O)[O-])cc2)[C@@]2(C)C[C@]3(c4ccccc4)N(c4ccc([N+](=O)[O-])cc4)N=C(C(=O)OCC)N3c3ccccc3N12,> 100 µM (inactive),> 100 µM (inactive),> 100 µM (inactive),> 100 µM (inactive),> 100 µM (inactive),> 100 µM (inactive),> 100 µM (inactive),> 100 µM (inactive),> 100 µM (inactive),> 100 µM (inactive),> 100 µM (inactive),> 100 µM (inactive),> 100 µM (inactive),> 100 µM (inactive),> 100 µM (inactive),> 100 µM (inactive),> 100 µM (inactive),> 100 µM (inactive),> 100 µM (inactive),> 100 µM (inactive)
Cc1ccccc1N/N=C1\C(=O)Nc2ccccc21,> 100 µM (inactive),> 100 µM (inactive),> 100 µM (inactive),> 100 µM (inactive),> 100 µM (inactive),95.1 µM (inactive),> 100 µM (inactive),> 100 µM (inactive),41.7 µM (inactive),> 100 µM (inactive),> 100 µM (inactive),> 100 µM (inactive),> 100 µM (inactive),> 100 µM (inactive),> 100 µM (inactive),> 100 µM (inactive),> 100 µM (inactive),> 100 µM (inactive),0.0132 µM (active),96.8 µM (inactive)
COC1=CC(=O)c2c(O)c3c(c(O)c2C1=O)CC(C)(O)OC3 (stereo not given) [FUSARUBIN],1.99 µM (inactive),2.52 µM (inactive),3.44 µM (inactive),3.85 µM (inactive),5.51 µM (inactive),0.897 µM (active),3.12 µM (inactive),2.05 µM (inactive),15.7 µM (inactive),6.11 µM (inactive),2.42 µM (inactive),1.89 µM (inactive),3.75 µM (inactive),2.28 µM (inactive),3.19 µM (inactive),10.6 µM (inactive),6.37 µM (inactive),3.73 µM (inactive),1.99 µM (inactive),2.25 µM (inactive)
